Results as given in article PMC9413201, “Covalent Proteomimetic Inhibitor of the Bacterial FtsQB Divisome Complex” (Journal of the American Chemical Society, 2022).
Numbered stars: 1 amine (or outer) side, 2 acyl side, 3 side chain; on linkers, the order of the positions; unused ones are H or OH. Bridge positions count the residues as written; N and C are the ends. Square brackets hold non-standard residues; d marks the D form. Peptide text beside a SMILES is read from it. * marks the point of attachment. X1 = O=C([C@H](CCCCCC=[*:3])N[*:1])[*:2]; Nle = CCCC[C@H](N)C(=O)O; BrAc = O=C(CBr)*

System: E. coli 87
Format: cell-based, Escherichia coli
Method: 1.11 Checkerboard synergy assay
As described by Hsieh et al.,6 two-fold dilution series of cationic peptides were made in polypropylene microtiter plates (Ratiolab, L6018123, Dreieich, Germany) in 50 μL volume of MOPS medium/2% DMSO. Primary clinical isolates of Escherichia coli 87 were provided by Dr. Karin van Dijk, Amsterdam UMC. In a similar manner, two-fold dilution series of 17fα were made in polystyrene microtiter plates (Costar, REF3779, Corning NY, United States) in 70 μL volume of MOPS medium. Then, 50 μL of the 17fα series was transferred to the L8S1 containing polypropylene plate, resulting in a checkerboard titration of a L8S1 on the vertical axis and an 17fα on the horizontal axis. Mid-log phase cultures were diluted to OD600 0.1 and 10 μL culture was added to each well of the microtiter plate, resulting in a total volume of 110 μL and an OD600 of ~0.01 ([…]), and the OD600 was measured every 15 min for 12 h using the microplate reader. First, the MIC values of the compounds alone were determined as described previously. Similarly, the MIC values of the compound combination were determined (the fractional inhibitory concentrations (FIC))6. With these MIC values and FIC values, the fractional inhibitory concentration index (FICindex) was calculated as follows:
FIC = FICantibiotic + FICpeptide (1) […]

CCCC[C@@H]1NC(=O)[C@H](CO)NC(=O)[C@H](CC(C)C)NC(=O)[C@H](CCC(=O)O)NC(=O)[C@H](CC(N)=O)NC(=O)[C@@H](NC(=O)[C@H](C)NC(C)=O)CCCCCC=CCCCCC[C@@H](C(=O)N[C@@H](CCCCNC(=O)CBr)C(=O)N[C@@H](Cc2ccccc2)C(=O)N[C@@H](Cc2ccc(O)cc2)C(=O)N[C@@H](CCCNC(=N)N)C(=O)N[C@@H](CC(C)C)C(N)=O)NC(=O)CNC(=O)[C@@H]2CCCN2C(=O)[C@H](CCCNC(=N)N)NC(=O)[C@H]([C@@H](C)O)NC1=O [17fα] (Ac-A[X1]NELS[Nle]TRPG[X1]K(BrAc)FYRL-NH2; staple 2-12)
FICindex (fractional inhibitory concentration index) (17fα in combination with L8S1, checkerboard synergy assay, OD600 after 12 h, MIC = 90% growth inhibition, from averages of MICs (L8S1 n = 3, 17fα n = 5), ≤ 0.5 synergistic): 0.33
inhibitor concentration required for growth inhibition (clinical multidrug-resistant E. coli 87, MOPS medium, OD600): > 100 µM
